# In US6271369A, “Chimeric molecules targeted to viral RNAs” (priority 1997, dated 2001):
# Columns and labels:
# TAR:vif RNA = assay: Cleavage of control TAR:vif RNA (no oligo(rA) tract) in Daudi cell extract; assay type: biochemical, HIV-1; conditions: 0.2 or 1.0 μM
# Text: To determine the ability of the 2-5A:AS chimeric molecule SEQ ID NO:1 to induce site-directed RNA cleavage, a target RNA was constructed having an internal 3',5'-oligo(rA) tract. Hybridization between the (dT18) in SEQ ID NO:1 with the oligo(rA) in the target RNA attracts 2-5A-dependent RNase to the target RNA, resulting in a highly specific cleavage event. The experimental target, TAR:A25 :vif RNA, was produced in vitro from a pSP64-derived plasmid containing a partial cDNA for the HIV vif protein interrupted with 25 adenylyl residues. A control TAR:vif RNA was constructed with the A25 tract deleted. These RNA species, which lack 3'-poly(rA) tails, were radiolabeled at their 3'-termini with [5'-^32 p)-pCp by T4 RNA ligase and gel purified prior to the assay. […]
# Daudi cell extracts prepared with dounce homogenization were made by the well known method of Wreschner, et al. in a buffer containing 40mM KCl; 10 mM HEPES pH 7.5; 2.5mM magnesium acetate; 0.5mM ATP; 2.5% glycerol and 2.0mM mercaptoethanol. […] Cleavage products were analyzed in 6% polyacrylamide/8M urea gels (30×40×0.04cm).
# This property of the 2-5A:AS molecule was determined by experiments employing unmodified 2-5A. […]
# TAR:A25 :vif RNA = assay: Primer-extension analysis of TAR:A25:vif RNA cleavage products; assay type: biochemical, HIV-1
# Experimental: To determine the exact sites of cleavage of the TAR:A25 :vif RNA induced by SEQ ID NO:1, a primer-extension DNA synthesis reaction was performed on the RNA cleavage products with reverse transcriptase.
# A primer extension assay was used as described by Driscoll, et al. (Cell, 58:519 (1989)) except that all four dNTPs were included. DNA sequencing of plasmid pSP6/TAR:A25 :vif was with the same primer using Sequenase version 2.0 (United States Biochemical) and ^35 S-dATP. The sequence of the primer was 5'-[…]-3'(SEQ ID NO:3). Results were reproduced from two separate sets of RNA cleavage reactions.
# The cleavage sites of the RNA subjected to the RNA cleavage reactions described above were determined by comparing the migration of the primer extension products and DNA sequencing products performed with the same primer annealed to the plasmid containing the TAR:A25 :vif sequence. […] Previous reports indicate that unmodified 2-sA stimulates 2-5A-dependent RNase to cleave RNA on the 3'-side of UN sequences, where N stands for any nucleotide.
substance,measurement,setting,value
p5'A2'(p5'A2')2 P5'A2'p1[OCH2 (CH2)2 CH2 O]4p1[OCH2 (CH2)2 CH2 O]4p5'pdT3'(p5'dt3')16 p5'dt (AAAATTTTTTTTTTTTTTTTTT; chemistry not fully specified) [SEQ ID NO:1],specific cleavage in TAR:vif RNA lacking the oligo(rA) tract,TAR:vif RNA,failed to yield a specific cleavage
same,specific cleavage products / cleavage sites by primer extension,TAR:A25 :vif RNA,induced multiple cleavages within the oligo(rA) tract
same,levels of intact RNA (full-length primer extension products),TAR:A25 :vif RNA; after incubation in cell-free system,greatly reduced
